Calls of active or inactive are those of the source. No cut-off for these calls is given here.
Tests used:
Rattus norvegicus = assay: Tested for antihypertensive activity in spontaneously hypertensive rats (SHR) after oral administration; A - Compound shows antihypertensive activity.; format: functional, organism-based
Oryctolagus cuniculus = species on record: Oryctolagus cuniculus; assay: Tested for inhibitory activity against angiotensin II induced contraction in rabbit aortic rings; format: functional; conditions: Aorta, read-out: pA2 (converted)
[1] = molecular target: T1, Type-1 angiotensin II receptor (Bos taurus, UniProt P25104); assay: Concentration that gives 50% inhibition for binding of 125-I-[Sar1, IIe8] angiotensin to Angiotensin II receptor, type 1 in bovine adrenal cortex membrane.; format: cell membranes
T1 sequence (P25104 whole entry): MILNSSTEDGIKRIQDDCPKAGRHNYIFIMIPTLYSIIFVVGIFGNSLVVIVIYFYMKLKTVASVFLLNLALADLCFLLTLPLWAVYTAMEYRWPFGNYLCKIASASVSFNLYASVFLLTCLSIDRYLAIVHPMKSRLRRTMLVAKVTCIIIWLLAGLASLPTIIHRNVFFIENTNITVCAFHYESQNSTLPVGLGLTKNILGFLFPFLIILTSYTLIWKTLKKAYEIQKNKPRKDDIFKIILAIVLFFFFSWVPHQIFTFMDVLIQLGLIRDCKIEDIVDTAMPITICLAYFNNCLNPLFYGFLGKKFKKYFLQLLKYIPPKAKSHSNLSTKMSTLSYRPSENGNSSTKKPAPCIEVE

| Structure (SMILES) | Activity (Rattus norvegicus) | Kb (Oryctolagus cuniculus) [µM] | IC50 [1] [µM] |
| --- | --- | --- | --- |
| CCOC(=O)/C=C1\N(Cc2ccc(-c3ccccc3-c3nn[nH]n3)cc2)C(=O)CC12CCCCCC2 | Active | 0.00398 | – |
| CCOC(=O)/C=C1\C2C3CCC(C3)C2C(=O)N1Cc1ccc(-c2ccccc2-c2nn[nH]n2)cc1 (centres undefined) | – | 0.001 | – |
| CCOC(=O)/C=C1\C2C3CCCC(CC3)C2C(=O)N1Cc1ccc(-c2ccccc2-c2nn[nH]n2)cc1 (centres undefined) | A | 0.02 | – |
| CCCCc1nc(Cl)c(CO)n1Cc1ccc(-c2ccccc2-c2nnn[nH]2)cc1 [LOSARTAN] | – | 0.00158 | 0.425 |
| CCOC(=O)/C=C1\C2C(C(=O)N1Cc1ccc(-c3ccccc3-c3nn[nH]n3)cc1)C1C=CC2(OC)CC1 (centres undefined) | – | 0.00501 | – |
| CCOC(=O)/C=C1\C2C3C=CC(CCC3)C2C(=O)N1Cc1ccc(-c2ccccc2-c2nn[nH]n2)cc1 (centres undefined) | – | 0.0398 | – |
| CCOC(=O)/C=C1\N(Cc2ccc(-c3ccccc3-c3nn[nH]n3)cc2)C(=O)CC1(C)CC (centres undefined) | – | 0.0251 | 0.06 |
| CCOC(=O)/C=C1\C2C3C=CC(C3)C2C(=O)N1Cc1ccc(-c2ccccc2-c2nn[nH]n2)cc1 (centres undefined) | – | 0.00398 | – |
| CCOC(=O)/C=C1\C2C(C(=O)N1Cc1ccc(-c3ccccc3-c3nn[nH]n3)cc1)C1CCC2C1(C)C (centres undefined) | – | 0.251 | – |
| CCOC(=O)/C=C1\C2C(C(=O)N1Cc1ccc(-c3ccccc3-c3nn[nH]n3)cc1)C1CCC2C1(c1ccccc1)c1ccccc1 (centres undefined) | – | > 1 | – |
| CCOC(=O)/C=C1\N(Cc2ccc(-c3ccccc3-c3nnn[nH]3)cc2)C(=O)CC12CCCCCC2 | – | – | 0.06 |
| CCOC(=O)/C=C1\N(Cc2ccc(-c3ccccc3-c3nn[nH]n3)cc2)C(=O)CC12CCCC2 | – | 0.00316 | 0.25 |
| CCOC(=O)/C=C1\C2CCCCC2C(=O)N1Cc1ccc(-c2ccccc2-c2nn[nH]n2)cc1 (centres undefined) | – | 0.00398 | – |
| CCOC(=O)/C=C1\C2CC=CCC2C(=O)N1Cc1ccc(-c2ccccc2-c2nn[nH]n2)cc1 (centres undefined) | – | 0.0316 | – |
| CCOC(=O)/C=C1\C2C3CCC(O3)C2C(=O)N1Cc1ccc(-c2ccccc2-c2nn[nH]n2)cc1 (centres undefined) | – | 0.00398 | – |
| CCOC(=O)/C=C1/C(C)CC(=O)N1Cc1ccc(-c2ccccc2-c2nn[nH]n2)cc1 (centres undefined) | – | 0.316 | 3.1 |
| CCOC(=O)/C=C1\N(Cc2ccc(-c3ccccc3-c3nn[nH]n3)cc2)C(=O)CC1(CC)CC | – | 0.0126 | 0.1 |
| CCOC(=O)/C=C1\C2C3CCC(CC3)C2C(=O)N1Cc1ccc(-c2ccccc2-c2nn[nH]n2)cc1 (centres undefined) | A | 0.01 | – |
| CCOC(=O)/C=C1\N(Cc2ccc(-c3ccccc3-c3nnn[nH]3)cc2)C(=O)CC12CCCCC2 | – | 0.0126 | 0.14 |
| CCOC(=O)/C=C1\C2C3C=CC(CC3)C2C(=O)N1Cc1ccc(-c2ccccc2-c2nn[nH]n2)cc1 (centres undefined) | – | 0.00631 | – |

Reference: ChEMBL document CHEMBL1127002, “Substituted pyrrolidin-2-one biphenyltetrazoles as angiotensin II antagonists” (Bioorg Med Chem Lett, 1993)
